Reference: patent publication US20100298285A1, “Biclycloheteroaryl Compounds as P2x7 Modulators and Uses Thereof” (priority 2006, published 2010)

tested on: IL-1β release, THP-1 cells; experiment: IL-1β release assay in differentiated THP-1 cells stimulated with BzATP (Example 9); format: cell-based; conditions: Homo sapiens; 0.1 μM compound ("*" symbols); differentiated THP-1 cells, 250 uM BzATP; read-out: IL-1β% Inhib. @ 0.3 or 0.1 μM
Experimental: THP-1 cells (ATCC Cat # 285-IF-100) are plated in 96 well plates at a concentration of 200,000 cells per well and allowed to differentiate in RPMI-1640 media (ATCC Cat # 30-2001) containing 10% FBS, 100 IU/mL penicillin, 100 ug/mL streptomycin, 100 ng/mL LPS and 100 ng/mL IFN-γ for 16 hours. Following differentiation, the cells are treated for an additional 2 hours in RPMI-1640 media containing 100 IU/mL penicillin, 100 ug/mL streptomycin and fresh LPS at 100 ng/mL. The cells are then pretreated for 30 minutes with the compound of interest at the appropriate concentration in RPMI media containing 100 IU/mL penicillin, 100 ug/mL streptomycin. Following the pretreatment 2′,3′-O-(4-benzoylbenzoyl)-adenosine 5′-triphosphate (Sigma Aldrich Cat # B6396) is added to a final concentration of 250 uM and the cells are incubated for an additional 45 minutes. 30 uL of cell supernatant is then collected and IL-1β levels determined via ELISA (R&D systems Cat. # HSLB50) according to manufacturer's recommendations using the Tecan Safire plate reader. Background adjusted IL-1β levels of drug treated and non-treated cells are used to calculate the percent inhibition.
The following compounds have been or can be prepared according to the synthetic methods described above. For the purpose of Table 1 below, activity of each compound, which can be determined using the IL-1β assay method described in Example 9, is expressed as follows: […]
The compounds set forth in Table 1 were tested for activity in a cellular model as described herein. Specifically, cells were pretreated with differing amounts of the compound under test and released IL-1β determined as in Example 9, above. Measurements were made and IC50 values, presented in Table 2, below, were determined by fitting the data to a four parameter logistic equation using GraphPad Prism software (GraphPad Software, Inc). The equation may be expressed by the following formula:
Y=Bottom+(Top−Bottom)/(1+10̂((Log EC50−X)*HillSlope))
Where X is the logarithm of concentration, Y is the response and Y starts at Bottom and goes to Top with a sigmoid shape.

Cc1cccc(S(=O)(=O)N2CCc3c(ccc(Cl)c3NC(=O)Cc3ccc(C(F)(F)F)cc3)C2)c1 [Compound 3024] and COc1cccc(S(=O)(=O)N2CCc3c(ccc(Cl)c3NC(=O)Cc3ccc(C(F)(F)F)cc3)C2)c1 [Compound 3030] fall in the same range of inhibition at 0.1 µM: 0 to 25% for the first, 0 to 25% for the second.

O=C(Cc1ccc(C(F)(F)F)cc1)Nc1c(Cl)ccc2c1CCN(S(=O)(=O)c1ccc(Cl)c(C(F)(F)F)c1)C2 [Compound 3020] and O=C(Cc1ccc(C(F)(F)F)cc1)Nc1c(Cl)ccc2c1CCN(S(=O)(=O)c1ccccc1C(F)(F)F)C2 [Compound 3031] fall in the same range of inhibition at 0.1 µM: 0 to 25% for the first, 0 to 25% for the second.

O=C(Cc1ccc(C(F)(F)F)cc1)Nc1c(Cl)ccc2c1CCN(S(=O)(=O)c1cc(F)ccc1F)C2 [Compound 3008] and O=C(Cc1ccc(C(F)(F)F)cc1)Nc1c(Cl)ccc2c1CCN(S(=O)(=O)c1ccccc1F)C2 [Compound 3002] fall in the same range of inhibition at 0.1 µM: 0 to 25% for the first, 0 to 25% for the second.

O=C(Cc1ccc(C(F)(F)F)cc1)Nc1c(Cl)ccc2c1CCN(S(=O)(=O)c1cccc(Cl)c1F)C2 [Compound 3019] and O=C(Cc1ccc(C(F)(F)F)cc1)Nc1c(Cl)ccc2c1CCN(S(=O)(=O)c1c(F)cccc1F)C2 [Compound 3009] fall in the same range of inhibition at 0.1 µM: 0 to 25% for the first, 0 to 25% for the second.

same assay, conditions: Homo sapiens; 0.3 μM compound ("+" symbols); differentiated THP-1 cells, 250 uM BzATP; read-out: IL-1β% Inhib. @ 0.3 or 0.1 μM

First: O=C(Cc1ccc(C(F)(F)F)c(F)c1)Nc1cccc2c1CCN(C(=O)COC1CCNCC1)C2 [Compound 3052]
Second: O=C(Cc1ccc(C(F)(F)F)c(F)c1)Nc1cccc2c1CCN(C(=O)CC1CCCCC1)C2 [Compound 3042]
The inhibition at 0.3 µM of the first is lower: 0 to 25% for the first, ≥ 76% for the second.

O=C(Cc1cccc(C(F)(F)F)c1F)Nc1c(Cl)ccc2c1CCN(C(=O)c1cc(F)ccc1F)C2 [Compound 3177] and O=C(Cc1ccc(C(F)(F)F)c(F)c1)Nc1c(Cl)ccc2c1CCN(C(=O)c1cc(F)ccc1F)C2 [Compound 3113] fall in the same range of inhibition at 0.3 µM: 0 to 25% for the first, 0 to 25% for the second.

Compared with O=C(Cc1cccc(C(F)(F)F)c1F)Nc1c(Cl)ccc2c1CCN(C(=O)COc1ccc(Cl)cc1)C2 [Compound 3167], O=C(Cc1ccc(C(F)(F)F)c(F)c1)Nc1c(Cl)ccc2c1CCN(C(=O)COc1ccc(Cl)cc1)C2 [Compound 3104] is lower in inhibition at 0.3 µM: 26 to 50% for the first, 0 to 25% for the second.

O=C(Cc1cccc(C(F)(F)F)c1F)Nc1c(Cl)ccc2c1CCN(C(=O)c1ccc(C(F)(F)F)cc1F)C2 [Compound 3169] and O=C(Cc1cccc(C(F)(F)F)c1F)Nc1c(Cl)ccc2c1CCN(C(=O)c1ccccc1C(F)(F)F)C2 [Compound 3170] fall in the same range of inhibition at 0.3 µM: 0 to 25% for the first, 0 to 25% for the second.

First: CN(C)c1ccc(C(=O)N2CCc3c(ccc(Cl)c3NC(=O)Cc3ccc(C(F)(F)F)c(F)c3)C2)cc1 [Compound 3096]
Second: CN(C)c1ccc(C(=O)N2CCc3c(ccc(Cl)c3NC(=O)Cc3cccc(C(F)(F)F)c3F)C2)cc1 [Compound 3159]
The inhibition at 0.3 µM of the first is higher: 26 to 50% for the first, 0 to 25% for the second.

Cc1cc(C(=O)N2CCc3c(ccc(Cl)c3NC(=O)Cc3ccc(C(F)(F)F)c(F)c3)C2)no1 [Compound 3116] and CC(=O)N1CCc2c(ccc(Cl)c2NC(=O)Cc2ccc(C(F)(F)F)c(F)c2)C1 [Compound 3069] fall in the same range of inhibition at 0.3 µM: 0 to 25% for the first, 0 to 25% for the second.

Compared with O=C(Cc1cccc(C(F)(F)F)c1F)Nc1c(Cl)ccc2c1CCN(C(=O)CCC1CCCCC1)C2 [Compound 3194], Cc1ccccc1C(=O)N1CCc2c(ccc(Cl)c2NC(=O)Cc2cccc(C(F)(F)F)c2F)C1 [Compound 3176] is lower in inhibition at 0.3 µM: 26 to 50% for the first, 0 to 25% for the second.

First: O=C(Cc1cccc(C(F)(F)F)c1F)Nc1c(Cl)ccc2c1CCN(C(=O)C1COc3ccccc3O1)C2 (centres unmarked) [Compound 3174]
Second: O=C(Cc1cccc(C(F)(F)F)c1F)Nc1c(Cl)ccc2c1CCN(C(=O)C1CC1c1ccccc1)C2 (centres unmarked) [Compound 3162]
The inhibition at 0.3 µM of the first is lower: 0 to 25% for the first, 26 to 50% for the second.

First: O=C(Cc1ccc(C(F)(F)F)c(F)c1)Nc1c(Cl)ccc2c1CCN(C(=O)/C=C/c1ccccc1)C2 [Compound 3118]
Second: O=C(Cc1ccc(C(F)(F)F)c(F)c1)Nc1c(Cl)ccc2c1CCN(C(=O)COCc1ccccc1)C2 [Compound 3097]
The inhibition at 0.3 µM of the first is higher: 26 to 50% for the first, 0 to 25% for the second.

Cc1ccc(F)c(C(=O)N2CCc3c(ccc(Cl)c3NC(=O)Cc3ccc(C(F)(F)F)c(F)c3)C2)c1Cl [Compound 3107] and O=C(Cc1ccc(C(F)(F)F)c(F)c1)Nc1c(Cl)ccc2c1CCN(C(=O)c1ccc(Cl)cc1Cl)C2 [Compound 3100] fall in the same range of inhibition at 0.3 µM: 0 to 25% for the first, 0 to 25% for the second.

First: O=C(Cc1cccc(C(F)(F)F)c1F)Nc1c(Cl)ccc2c1CCN(C(=O)c1cccc(Cl)c1Cl)C2 [Compound 3179]
Second: COc1cccc(C(=O)N2CCc3c(ccc(Cl)c3NC(=O)Cc3cccc(C(F)(F)F)c3F)C2)c1 [Compound 3153]
The inhibition at 0.3 µM of the first is higher: 26 to 50% for the first, 0 to 25% for the second.

COc1ccc(C(=O)N2CCc3c(ccc(Cl)c3NC(=O)Cc3cccc(C(F)(F)F)c3F)C2)cc1 [Compound 3141] and O=C(Cc1cccc(C(F)(F)F)c1F)Nc1c(Cl)ccc2c1CCN(C(=O)c1ccc(Oc3ccccc3)nc1)C2 [Compound 3197] fall in the same range of inhibition at 0.3 µM: 0 to 25% for the first, 0 to 25% for the second.

First: O=C(Cc1ccc(C(F)(F)F)c(F)c1)Nc1cccc2c1CCN(C(=O)C1CCOC1)C2 (centres unmarked) [Compound 3039]
Second: N#CN1CCc2c(cccc2NC(=O)Cc2ccc(C(F)(F)F)c(F)c2)C1 [Compound 3053, N-(2-Cyano-1,2,3,4-tetrahydro-isoquinolin-5-yl)-2-(3-fluoro-4-trifluoromethyl-phenyl)-acetamide]
The inhibition at 0.3 µM of the first is higher: 26 to 50% for the first, 0 to 25% for the second.

First: CC(c1ccc(F)cc1)N1CCc2c(cccc2NC(=O)Cc2ccc(C(F)(F)F)c(F)c2)C1 (centres unmarked) [Compound 3059, N-{2-[1-(4-Fluoro-phenyl)-ethyl]-1,2,3,4-tetrahydro-isoquinolin-5-yl}-2-(3-fluoro-4-trifluoromethyl-phenyl)-acetamide]
Second: O=C(Cc1ccc(C(F)(F)F)c(F)c1)Nc1cccc2c1CCN(CC(O)C(O)(c1ccccc1)C(F)(F)F)C2 (centres unmarked) [Compound 3067]
The inhibition at 0.3 µM of the first is lower: 51 to 75% for the first, ≥ 76% for the second.

Compared with CC(C)(C)OC(=O)N1CCC(OCC(=O)N2CCc3c(cccc3NC(=O)Cc3ccc(C(F)(F)F)c(F)c3)C2)CC1 [Compound 3047], COc1cccc(C(=O)N2CCc3c(ccc(Cl)c3NC(=O)Cc3ccc(C(F)(F)F)c(F)c3)C2)c1 [Compound 3090] is lower in inhibition at 0.3 µM: 51 to 75% for the first, 0 to 25% for the second.

For COc1ccc(C(=O)N2CCc3c(ccc(Cl)c3NC(=O)Cc3ccc(C(F)(F)F)c(F)c3)C2)cc1OC [Compound 3129], the inhibition at 0.3 µM was 0 to 25%.

same assay, conditions: Homo sapiens; THP-1 cells, BzATP 250 uM, four parameter logistic fit

Going from O=C(Cc1ccc(C(F)(F)F)c(F)c1)Nc1cccc2c1CCN(C(=O)COC1CCNCC1)C2 [Compound 3052] to O=C(Cc1ccc(C(F)(F)F)c(F)c1)Nc1cccc2c1CCN(C(=O)CC1CCCCC1)C2 [Compound 3042], the IC50 falls from 890 nM to 153 nM (5.8-fold). The second is the more potent here.

COc1ccc2c(c1NC(=O)Cc1ccc(C(F)(F)F)c(F)c1)CCN(C(=O)C(C)(C)CO)C2 [Compound 3479, 2-(3-Fluoro-4-trifluoromethyl-phenyl)-N-[2-(3-hydroxy-2,2-dimethyl-propionyl)-6-methoxy-1,2,3,4-tetrahydro-isoquinolin-5-yl]-acetamide] and Cc1ccc2c(c1NC(=O)Cc1ccc(C(F)(F)F)c(F)c1)CCN(C(=O)C(C)(C)CO)C2 [Compound 3472] are within 1.5-fold of each other in IC50: 171 nM for the first, 203 nM for the second.

First: Cc1ccc2c(c1NC(=O)Cc1ccc(C(F)(F)F)c(F)c1)CCN(C(=O)C(C)(C)C)C2 [Compound 3220]
Second: CCC(=O)N1CCc2c(ccc(C)c2NC(=O)Cc2ccc(C(F)(F)F)c(F)c2)C1 [Compound 3203]
The IC50 of the first is 3.4-fold lower: 25.5 nM for the first, 85.8 nM for the second. The first is the more potent here.

Compared with CCCCS(=O)(=O)N1CCc2c(ccc(Cl)c2NC(=O)Cc2cccc(C(F)(F)F)c2F)C1 [Compound 3327], Cc1ccc2c(c1NC(=O)Cc1ccc(C(F)(F)F)c(F)c1)CCN(S(=O)(=O)c1c(F)cccc1F)C2 [Compound 3425] is 1.7-fold higher in IC50: 47.2 nM for the first, 78.5 nM for the second. The first is the more potent here.

COc1ccc2c(c1NC(=O)Cc1ccc(C(F)(F)F)c(F)c1)CCN(C(=O)CC1(O)CCCC(C)(C)C1)C2 (centres unmarked) [Compound 3478, 2-(3-Fluoro-4-trifluoromethyl-phenyl)-N-{2-[2-(1-hydroxy-3,3-dimethyl-cyclohexyl)-acetyl]-6-methoxy-1,2,3,4-tetrahydro-isoquinolin-5-yl}-acetamide] and COc1ccc2c(c1NC(=O)Cc1ccc(C(F)(F)F)c(F)c1)CCN(C(=O)C1(O)CCCCC1)C2 [Compound 3477, 2-(3-Fluoro-4-trifluoromethyl-phenyl)-N-[2-(1-hydroxy-cyclohexanecarbonyl)-6-methoxy-1,2,3,4-tetrahydro-isoquinolin-5-yl]-acetamide] are within 1.5-fold of each other in IC50: 192 nM for the first, 280 nM for the second.

Going from O=C(Cc1ccc(C(F)(F)F)c(F)c1)Nc1cccc2c1CCN(C(=O)C1CCOC1)C2 (centres unmarked) [Compound 3039] to N#CN1CCc2c(cccc2NC(=O)Cc2ccc(C(F)(F)F)c(F)c2)C1 [Compound 3053, N-(2-Cyano-1,2,3,4-tetrahydro-isoquinolin-5-yl)-2-(3-fluoro-4-trifluoromethyl-phenyl)-acetamide], the IC50 rises from 443 nM to > 1000 nM. The first is the more potent here.

Going from CC(c1ccc(F)cc1)N1CCc2c(cccc2NC(=O)Cc2ccc(C(F)(F)F)c(F)c2)C1 (centres unmarked) [Compound 3059, N-{2-[1-(4-Fluoro-phenyl)-ethyl]-1,2,3,4-tetrahydro-isoquinolin-5-yl}-2-(3-fluoro-4-trifluoromethyl-phenyl)-acetamide] to O=C(Cc1ccc(C(F)(F)F)c(F)c1)Nc1cccc2c1CCN(CC(O)C(O)(c1ccccc1)C(F)(F)F)C2 (centres unmarked) [Compound 3067], the IC50 falls from 256 nM to 150 nM (1.7-fold).

CC(C)(C)OC(=O)N1CCC(OCC(=O)N2CCc3c(cccc3NC(=O)Cc3ccc(C(F)(F)F)c(F)c3)C2)CC1 [Compound 3047] and Cc1ccc2c(c1NC(=O)Cc1ccc(C(F)(F)F)c(F)c1)CCN(C(=O)CCC1CCCC1)C2 [Compound 3207] are within 1.5-fold of each other in IC50: 199 nM for the first, 204 nM for the second.

Work on Cc1ccc2c(c1NC(=O)Cc1ccc(C(F)(F)F)c(F)c1)CCN(C(=O)C1CCCC1)C2 [Compound 3208] yielded an IC50 of 60.2 nM.
